Assay results taken from publication PMC10649417, “Inhibitory Activity of 4-Benzylidene Oxazolones Derivatives of Cinnamic Acid on Human Acetylcholinesterase and Cognitive Improvements in a Mouse Model” (Molecules, 2023).

What was measured:
[1] = molecular target: T1, human acetylcholinesterase (hAChE) (Homo sapiens, UniProt P22303); assay: Kinetic determinations of reversible hAChE inhibition (Ellman assay); type: biochemical; details: for Ki: room temperature, 0.1 M PBS pH 7.4, n = 3, read-out: Inhibition Constant (Ki); for Parameter α: α of Vmax and Km referred to control AChE activity, mixed model inhibition; for decrease in inhibition potency compared to (1): from Ki values
T1 construct: purchased Sigma Aldrich; host or cells: HEK 93 cells (so in the source)
Procedure: (§1) Recombinant hAChE expressed in HEK 93 cells, a lyophilized powder (Sigma Aldrich, Mexico), was dissolved in TBSA/sodium azide 0.02% and then was stored in aliquots at −20 °C. Each aliquot was diluted as required in a solution of PBS 0.1M pH 7.4/BSA 0.01% on the day of the experiment.
Reversible inhibition assays from all hAChE were measured using a spectrophotometric Ellman assay at room temperature in 0.1 M PBS pH 7.4, containing 0.01% BSA, containing DTNB 300 µM as a chromogen. The equilibrium dissociation constant (Ki) of the hAChE–oxazolone conjugate was determined using different substrate concentrations (s) ranging from 0.05 to 0.200 mM, and at least four different concentrations of the oxazolones (i) were applied at a given substrate concentration in order to obtain hAChE inhibition between 20% and 80% to establish the affinity for each hAChE–oxazolone conjugate combination. The enzyme activity (ν) was plotted versus the substrate concentration [S] analyzed by non-linear regression analysis (Michaelis–Menten plot); data were transformed into a double reciprocal Lineweaver–Burk plot. Plots 1/ν versus 1/[S] were generated by plotting the slope versus the oxazolone concentration and the ordinate versus the oxazolone concentration of the primary plot. The processing of experimental data to define the oxazolones affinity was performed by a linear regression analysis where the y-intercept determines the enzyme-inhibitor dissociation constants (Ki), while the x-intercept determines the enzyme-substrate dissociation constant (Ks). The equation was used assuming that the substrate, due to low substrate concentrations used in experiments, binds only to the catalytic site, while the inhibitor can bind to both sites, catalytic and peripheral. To determine the mechanism of inhibition, we used the dose-response curves fitted using the Mixed Model Inhibition by the constants Vmax and Km calculated from Michaelis–Menten kinetics that includes competitive, uncompetitive, and non-competitive inhibition as special cases. The GraphPad Prims 6.0 software, San Diego, CA, USA was used to calculate the kinetics. All data are shown as means of n = 3.

[2] = molecular target: T1, human acetylcholinesterase (hAChE); assay: Estimation of IC50 values on hAChE (Ellman, 96-microwell plates); type: biochemical; details: room temperature, 0.1 M PBS pH 7.4; n = 3
Procedure: as §1
The concentrations of test compounds that inhibited the hydrolysis of substrates by 50% (IC50) were determined by monitoring the effect of various concentrations of oxazolones in the assays on the inhibition values. To study the potency, the oxazolones with an inhibition greater than 50% were selected, taken from the screening test results at 300 μM. All the inhibition studies were performed at room temperature in 96-microwell plates using Multiskan FC 5111900 (Lab Systems, CA, USA). The DTNB was used for the measurement of hAChE activity. In total, 174 μL in 0.1 M PBS pH 7.4/0.01% BSA, containing 300 μM DTNB final concentration, 2 μL of test-compound solution, and 2 μL of hAChE solution (0.2 μM) were mixed. The reaction was then initiated by adding 2 μL acetylthiocholine (10 mM), and the plate was read immediately. The formation of yellow 2-nitro-5-tiobenzoico acid due to the reaction of DTNB with thiocholine monitored the enzymatic hydrolysis of acetylthiocholine. Measures were at a wavelength of 412 nm at room temperature after 1 min. The IC50 values were then calculated using the GraphPad Prism 6.0 software (San Diego, CA, USA). All data are shown as means of n = 3.

[3] = molecular target: T1, human acetylcholinesterase (hAChE); assay: hAChE inhibitory screening (Ellman method); type: biochemical; details: n = 3
Procedure: as §1
The spectrophotometric method of Ellman was used to evaluate the inhibition of hAChE. The assay was carried out by double beam UV-Vis 6705 Janway spectrophotometer at room temperature, using optical polystyrene cuvettes of 1.0 cm path length (10 × 10 × 45 mm, 340–800 nm optical transparency). Each test compound was dissolved in ethanol. […] Aliquots of 970 μL of PBS 0.1 M pH 7.4/BSA 0.01% containing DTNB (300 μM) and 10 μL of hAChE (0.2 μM) were placed in the polystyrene cuvette. An amount of 10 μL of a stock solution to obtain a final concentration of 100 or 300 μM of the tested compound was added. In total, 10 μL of an aqueous solution of acetylthiocoline 10 mM was added to start the reaction. The absorbance of the sample by the generation of the yellow 5-nitro-2-tio-benzoic anion was recorded at 412 nm at room temperature after 1 min. As a control, an identical enzyme solution without the inhibitor was processed following the same protocol to determine 100% of enzyme activity. […] Each experiment was repeated at least in triplicate. The capacity of each compound to inhibit hAChE was expressed as percent inhibition calculated using Equation (1):(1) Inhibition(%)=Ac−Ai×100/Ac where Ac and Ai represent the change in the absorbance in the […], respectively.

male ICR mice [4] = assay: Y-maze spontaneous alternation test; type: in vivo, mouse; details: 1 h before, 8 min in Y-maze, n = 5, mean ± SE
Procedure: (§2) The experimental protocols were submitted and approved by the Bioethics Committee of the Faculty of Medicine and Psychology, Autonomous University of Baja California University, Tijuana, México (Record No. 666/2021-2). To perform the in vivo cognitive test experiments, male ICR mice eight weeks of age were used. The animals were housed with access to water and food under a 12 h light and dark cycle, with controlled temperature and humidity.
(§3) To carry out the cognition experiments, we used the methods previously described in detail by Arunrungvichian K., et al., 2015, in which they produced pharmacological amnesia using scopolamine in a mouse model. […] All compounds were administered by intraperitoneal injection in a volume of 5 mL/kg. Saline solution was used for the vehicle group (SH).

male ICR mice [5] = assay: Spatial working memory, modified Y-maze, scopolamine-induced amnesia; type: in vivo, mouse; details: for Percentage of unfamiliar arm exploration: n = 5
Procedure: as §2, §3
We use the maze used in the spontaneous alternation tests except for the use of a partition to close one of three arms. Here, mice, throughout multiple arm entries, should tend to enter a less recently visited arm or an unfamiliar arm of the maze. The mice were injected with compound 1, SH, DZ, and scopolamine (1 h and 30 min) before starting experiments. Each mouse was placed at the end of one arm and allowed to move freely for 5 min to get familiar with the two open arms. All arms were opened after 30 min of resting to allow entering in all three arms. An entry was counted if mice accessed an arm at least 10 cm. The percentage of unfamiliar arm exploration was calculated as Equation (2):(2) Percentage of unfamiliar arm exploration=number of unfamiliar arm entry/number of all arms entry×100

male ICR mice [6] = assay: Novel Object Recognition (NOR) test, scopolamine-induced amnesia; type: in vivo, mouse; details: for Discrimination Index (DI): scopolamine-treated mice, n = 5, mean ± SE; for effect on episodic short-term memory (DI vs amnesic group): donepezil 1 mg/kg, oxazolone (1) 5, 10, 25 and 100 μmol/kg, i.p.
Procedure: as §2, §3
We employed the Novel Object Recognition Test (NOR) to assess recognition memory, a valuable tool for evaluating cognitive impairment in rodents and testing the impact of new drugs on cognition. This test involves an open-field arena containing two distinct types of objects, each with unique colors and shapes for easy discrimination. The basis of this test lies in rodents’ natural inclination to spend more time exploring a new object compared to a familiar one, leading to the calculation of a Discrimination Index (DI).
The testing procedure unfolded as follows: On the first day, the mice were allowed to freely explore the open-field apparatus for 5 min to become accustomed to the environment. On the second day, oxazolone 1, DZ, and SH were administered 1 h prior, while SC was given 30 min before the acquisition trial. During this trial, the mice were introduced to the apparatus with two identical objects. After spending 10 min in their cages, one of the objects was replaced with a new one, and the mice were granted 5 min to explore these objects during the retention trial. We meticulously recorded the time the mice spent exploring each object, defined as when their noses approached within 3 cm or when they made contact with the objects. The DI was calculated as (TN – TF)/(TN + TF), with TN representing the exploration time of the new object and TF indicating the exploration time of the familiar object.

T1 sequence (P22303 32-614): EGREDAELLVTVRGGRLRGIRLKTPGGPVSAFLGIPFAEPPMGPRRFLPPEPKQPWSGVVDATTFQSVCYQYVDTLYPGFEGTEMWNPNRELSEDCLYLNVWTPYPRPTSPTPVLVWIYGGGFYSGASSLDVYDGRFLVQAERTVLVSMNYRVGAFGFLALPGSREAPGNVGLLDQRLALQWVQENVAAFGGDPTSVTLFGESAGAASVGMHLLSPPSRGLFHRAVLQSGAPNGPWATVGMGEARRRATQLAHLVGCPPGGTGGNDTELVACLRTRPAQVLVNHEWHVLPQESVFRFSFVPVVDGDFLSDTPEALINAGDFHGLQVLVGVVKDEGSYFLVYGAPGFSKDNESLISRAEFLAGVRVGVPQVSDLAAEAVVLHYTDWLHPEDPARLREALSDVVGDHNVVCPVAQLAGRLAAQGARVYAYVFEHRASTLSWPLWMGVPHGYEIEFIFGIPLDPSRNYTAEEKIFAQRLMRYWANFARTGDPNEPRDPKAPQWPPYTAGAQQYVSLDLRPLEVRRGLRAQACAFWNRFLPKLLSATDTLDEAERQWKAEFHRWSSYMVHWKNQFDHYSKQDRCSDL

Compound | Mode of Inhibition [1] | Ki [1] | Parameter α [1] | IC50 [2] | other results
CC(=O)Oc1cccc(/C=C2N=C(/C=C/c3ccccc3)OC\2=O)c1 [Oxazolone 5, 3-((Z)-(5-oxo-2-((E)-styryl)oxazol-4(5H)-ylidene)methyl)phenyl acetate] | Non-competitive | 183 ± 46 µM | 1 | 204 ± 39.7 µM | –
CC(=O)Oc1ccc(/C=C2N=C(/C=C/c3ccccc3)OC\2=O)cc1 [Oxazolone 6, 4-((Z)-(5-oxo-2-((E)-styryl)oxazol-4(5H)-ylidene)methyl)phenyl acetate] | uncompetitive | 198 ± 49.5 µM | 0.006 | 246 ± 51.2 µM | decrease in inhibition potency compared to (1) [1]: approximately 100 fold
Cc1ccc(/C=C2N=C(/C=C/c3ccccc3)OC\2=O)cc1 [Oxazolone 2, 4-((Z)-4-methylbenzylidene)-2-((E)-styryl)oxazol-5(4H)-one] | Competitive | 108 ± 7.77 µM | 4.98 | 95.5 ± 1.47 µM | –
O=C1OC(/C=C/c2ccccc2)=NC/1=C\c1ccccc1 [Oxazolone 1, 4-((Z)-benzylidene)-2-((E)-styryl)oxazol-5(4H)-one] | Competitive | 2.08 ± 0.36 µM | 21.84 | 9.2 ± 2.3 µM | inhibition at 100 µM ([3]; 100 μM compound): 61.3%; locomotor activity, number of arm entries (male ICR mice [4]; 5 μmol/kg i.p.): 31.8 ± 2.1 entries; locomotor activity, number of arm entries (male ICR mice [4]; 50 μmol/kg i.p.): 34 ± 2.3 entries; Percentage of unfamiliar arm exploration (male ICR mice [5]; 25 μmol/kg i.p., scopolamine-treated mice, mean ± SE): 37.83 ± 0.7%; Percentage of unfamiliar arm exploration (male ICR mice [5]; 100 μmol/kg i.p., scopolamine-treated mice, mean ± SE): 48.30 ± 5.4%; Discrimination Index (DI) (male ICR mice [6]; 10 μmol/kg i.p.): 0.317 ± 0.051; Discrimination Index (DI) (male ICR mice [6]; 100 μmol/kg i.p.): 0.360 ± 0.056; effect on episodic short-term memory (DI vs amnesic group) (male ICR mice [6]): substantially improved episodic short-term memory
CN1[C@@H]2C[C@@H](OC(=O)[C@H](CO)c3ccccc3)C[C@H]1[C@@H]1O[C@@H]12 [scopolamine, reference compound] | – | – | – | – | Percentage of unfamiliar arm exploration (male ICR mice [5]; scopolamine group, 1 mg/kg i.p. 30 min before): 28.58 ± 5%
CC(=O)Oc1cccc(/C=C2N=C(/C=C/c3ccccc3)OC\2=O)c1O [Oxazolone 7, 2-hydroxy-3-((Z)-(5-oxo-2-((E)-styryl)oxazol-4(5H)-ylidene)methyl)phenyl acetate] | Competitive | 67 ± 19 µM | 18.27 | 37.1 ± 1.61 µM | decrease in inhibition potency compared to (1) [1]: roughly 33 fold
COc1ccc(/C=C2N=C(/C=C/c3ccccc3)OC\2=O)cc1 [Oxazolone 4, 4-((Z)-4-methoxybenzylidene)-2-((E)-styryl)oxazol-5(4H)-one] | Competitive | 157 ± 46 µM | 4.16 | 137 ± 34.2 µM | inhibition at 100 µM ([3]; 100 μM compound): 49%
COc1cc2c(cc1OC)C(=O)C(CC1CCN(Cc3ccccc3)CC1)C2 (centres unmarked) [Donepezil, donepezil, reference compound] | – | – | – | – | effect on cognitive decline induced by scopolamine (novel arm exploration) (male ICR mice [5]; 1 mg/kg i.p., p < 0.001 vs scopolamine group): notably reversed; effect on episodic short-term memory (DI vs amnesic group) (male ICR mice [6]): substantially improved episodic short-term memory
O=C1OC(/C=C/c2ccccc2)=NC/1=C\c1ccc(Cl)cc1 [Oxazolone 3, 4-((Z)-4-chlorobenzylidene)-2-((E)-styryl)oxazol-5(4H)-one] | Competitive | 98.4 ± 24 µM | >1000 | 89.3 ± 22.3 µM | Inhibition (%) of hAChE ([3]; 100 μM compound): inactive; Inhibition (%) of hAChE ([3]; 300 μM compound): moderate inhibitory activity
